Non-standard residues stand in square brackets, D forms with d. Residues, ends and D or L forms follow the SMILES beside them. *: point of attachment. Tyr(3-Cl) = N[C@@H](Cc1ccc(O)c(Cl)c1)C(=O)O; Benzoyl(3,5-Cl2) = O=C(c1cc(Cl)cc(Cl)c1)*; Lys(Et2) = CCN(CC)CCCC[C@H](N)C(=O)O; Gly(cPent) = N[C@H](C(=O)O)C1CCCC1; NH(propargyl) = C#CCN*
How the values were obtained:
[1] = target: Fibroblast growth factor receptor 2 (Homo sapiens) (UniProt P21802); conditions: Compound concentration 20.0 uM
Description: Thermal Shift Assay. Domain: start/stop: T457-E768

Peregrin (Homo sapiens) = target: T1, Peregrin (Homo sapiens) (UniProt P55201); conditions: Compound concentration 20.0 uM
T1 sequence (whole entry): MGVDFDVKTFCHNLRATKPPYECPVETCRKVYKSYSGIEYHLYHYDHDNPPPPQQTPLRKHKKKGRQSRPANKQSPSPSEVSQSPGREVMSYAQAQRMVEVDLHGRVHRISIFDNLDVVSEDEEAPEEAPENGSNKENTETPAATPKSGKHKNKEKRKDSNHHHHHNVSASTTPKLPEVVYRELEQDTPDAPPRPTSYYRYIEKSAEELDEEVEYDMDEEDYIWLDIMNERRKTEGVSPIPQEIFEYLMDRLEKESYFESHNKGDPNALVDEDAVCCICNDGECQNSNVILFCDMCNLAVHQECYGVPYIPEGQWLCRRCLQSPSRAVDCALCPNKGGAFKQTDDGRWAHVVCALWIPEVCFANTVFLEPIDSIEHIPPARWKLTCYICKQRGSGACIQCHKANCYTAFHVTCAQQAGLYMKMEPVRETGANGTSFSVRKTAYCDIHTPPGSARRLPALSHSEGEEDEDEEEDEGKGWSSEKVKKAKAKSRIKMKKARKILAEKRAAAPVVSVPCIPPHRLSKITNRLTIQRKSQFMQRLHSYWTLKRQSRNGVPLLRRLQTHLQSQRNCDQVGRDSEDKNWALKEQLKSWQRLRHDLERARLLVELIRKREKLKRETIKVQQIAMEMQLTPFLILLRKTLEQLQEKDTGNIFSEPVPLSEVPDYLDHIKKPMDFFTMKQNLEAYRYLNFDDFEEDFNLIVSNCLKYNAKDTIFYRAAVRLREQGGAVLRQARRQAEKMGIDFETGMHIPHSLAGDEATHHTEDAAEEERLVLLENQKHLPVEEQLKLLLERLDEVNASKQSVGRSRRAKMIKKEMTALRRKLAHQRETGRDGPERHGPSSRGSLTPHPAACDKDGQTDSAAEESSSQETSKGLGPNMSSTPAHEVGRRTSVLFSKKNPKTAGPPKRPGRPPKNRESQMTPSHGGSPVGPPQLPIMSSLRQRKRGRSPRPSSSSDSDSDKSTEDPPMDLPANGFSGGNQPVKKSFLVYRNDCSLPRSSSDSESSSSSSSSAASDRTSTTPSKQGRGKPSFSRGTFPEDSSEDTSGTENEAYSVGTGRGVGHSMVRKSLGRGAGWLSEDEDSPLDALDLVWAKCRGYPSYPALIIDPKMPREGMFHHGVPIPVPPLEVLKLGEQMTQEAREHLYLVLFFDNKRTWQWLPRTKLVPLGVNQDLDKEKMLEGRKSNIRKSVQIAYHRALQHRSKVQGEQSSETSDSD

Chain of Fibroblast growth factor receptor 2 (Homo sapiens) (P21802 22-821 limits assumed): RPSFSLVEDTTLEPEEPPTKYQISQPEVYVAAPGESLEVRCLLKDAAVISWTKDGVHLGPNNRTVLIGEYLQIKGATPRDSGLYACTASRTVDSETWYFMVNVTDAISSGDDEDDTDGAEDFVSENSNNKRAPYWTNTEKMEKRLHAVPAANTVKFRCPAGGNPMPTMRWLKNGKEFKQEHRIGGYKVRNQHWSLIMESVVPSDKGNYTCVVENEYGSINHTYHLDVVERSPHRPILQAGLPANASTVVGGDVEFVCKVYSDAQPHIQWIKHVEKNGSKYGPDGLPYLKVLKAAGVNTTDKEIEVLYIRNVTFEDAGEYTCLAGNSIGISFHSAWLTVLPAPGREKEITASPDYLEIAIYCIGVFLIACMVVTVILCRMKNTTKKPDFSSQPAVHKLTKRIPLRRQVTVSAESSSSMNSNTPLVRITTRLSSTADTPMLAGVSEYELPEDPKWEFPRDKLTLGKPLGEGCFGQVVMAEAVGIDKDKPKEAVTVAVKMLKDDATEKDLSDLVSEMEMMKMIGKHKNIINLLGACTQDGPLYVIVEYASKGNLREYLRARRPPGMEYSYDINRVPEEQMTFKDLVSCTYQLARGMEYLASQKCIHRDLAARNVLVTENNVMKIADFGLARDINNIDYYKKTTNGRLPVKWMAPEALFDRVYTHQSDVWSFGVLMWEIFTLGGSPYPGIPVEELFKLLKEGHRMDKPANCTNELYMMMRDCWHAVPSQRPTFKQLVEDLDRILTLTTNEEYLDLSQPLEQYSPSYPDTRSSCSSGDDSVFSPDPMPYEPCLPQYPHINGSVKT

Question: Which results are given for `CC(C)c1c(-c2ccccc2)[nH]c2c(C#N)cnn2c1=O`?
Answer: ΔTm [1]: -0.06 °C; ΔTm (Peregrin (Homo sapiens)): 1.31 °C

Question: `Cc1ccc(NC2=CC(=O)c3sc(C)nc3C2=O)cc1` was tested. Which ΔTm [1] did it give?
Answer: -0.13 °C

Question: What about the ΔTm (Peregrin (Homo sapiens)) of the same compound?
Answer: -1.72 °C

Question: Which results are given for `Cc1nn2c(nc(O)c3cccnc32)c1C#N`?
Answer: ΔTm [1]: -0.24 °C; ΔTm (Peregrin (Homo sapiens)): 0.03 °C

Question: For `Cn1c(NCCN(CCO)CCCc2ccc([N+](=O)[O-])cc2)cc(=O)n(C)c1=O`, which ΔTm [1] is on record?
Answer: 0.47 °C

Question: What about the ΔTm (Peregrin (Homo sapiens)) of the same compound?
Answer: 1.28 °C

Question: Which ΔTm [1] does the source give for `Cc1sc(C(=O)c2cncnc2N[C@@H]2C[C@H](COS(N)(=O)=O)[C@@H](O)C2)cc1[C@@H]1NCCc2ccc(Cl)cc21` here?
Answer: 0.33 °C

Question: And the ΔTm (Peregrin (Homo sapiens))?
Answer: -1.17 °C

Question: Which results are given for `CNC(=O)c1cc(C(=O)NC2CC2)cn(Cc2ccccc2)c1=O`?
Answer: ΔTm [1]: -1.38 °C; ΔTm (Peregrin (Homo sapiens)): 0.73 °C

Question: How did the ΔTm [1] turn out when `NS(=O)(=O)OC[C@H]1C[C@@H](Nc2ncncc2C(=O)c2ccn(Cc3cccc(Br)c3)n2)C[C@@H]1O` was run?
Answer: -0.38 °C

Question: What about the ΔTm (Peregrin (Homo sapiens)) of the same compound?
Answer: 1.11 °C

Question: `O=c1cc(-c2ccc(O)cc2)oc2c(CN3CCN(Cc4cccs4)CC3)c(O)cc(O)c12` was tested. Which ΔTm [1] did it give?
Answer: 1.05 °C

Question: What about the ΔTm (Peregrin (Homo sapiens)) of the same compound?
Answer: 3.1 °C

Question: For `CNC(=O)c1cc(Nc2ccnc(Nc3ccc(CCNC(=O)OC(C)(C)C)cc3)n2)n[nH]1`, which ΔTm [1] is on record?
Answer: 0.64 °C

Question: And the ΔTm (Peregrin (Homo sapiens))?
Answer: -1.87 °C

Question: Which results are given for `Cc1ccnc(NS(=O)(=O)c2ccc(NC(=O)Nc3ccc(S(=O)(=O)Nc4nccc(C)n4)cc3)cc2)n1`?
Answer: ΔTm [1]: -0.47 °C; ΔTm (Peregrin (Homo sapiens)): 0.27 °C

Question: How did the ΔTm [1] turn out when `O=C1C(=O)N(Cc2ccccc2)c2ccc(S(=O)(=O)N3CCC[C@H]3COc3ccc(C(F)(F)F)cc3)cc21` was run?
Answer: 1.01 °C

Question: And the ΔTm (Peregrin (Homo sapiens))?
Answer: -2.14 °C

Question: How did the ΔTm [1] turn out when `CC(=O)N1CCN([C@H]2CCC[C@@H](NC(=O)c3cc4c(F)ccc(C)c4[nH]3)C2)CC1` was run?
Answer: -2.8 °C

Question: What about the ΔTm (Peregrin (Homo sapiens)) of the same compound?
Answer: -1.02 °C

Question: `O=C(C1CC1)N1CCN(Cn2sc3ccccc3c2=O)CC1` was tested. Which ΔTm [1] did it give?
Answer: 0.46 °C

Question: And the ΔTm (Peregrin (Homo sapiens))?
Answer: -1.36 °C

Question: Which results are given for `Cn1c(=O)c2c(nc(N3CCNCC3)n2Cc2nnc(-c3ccc(Cl)c(Cl)c3)o2)n(C)c1=O`?
Answer: ΔTm [1]: 0.08 °C; ΔTm (Peregrin (Homo sapiens)): -0.83 °C

Question: Which results are given for `COCCOCCn1nc2c(c1C)-c1c(Cl)ccc3c1c(C)c(C(=O)O)n3CCCOc1cc(cc3c(F)c(Cl)ccc13)CCc1cc(nn1C)CSC2`?
Answer: ΔTm [1]: -5.22 °C; ΔTm (Peregrin (Homo sapiens)): 0 °C

Question: With `O=C(NCCCn1ccnc1)c1cc2nc(-c3ccccc3)cc(-c3ccccc3)n2n1` as the compound, how does the ΔTm [1] read?
Answer: 0.5 °C

Question: What about the ΔTm (Peregrin (Homo sapiens)) of the same compound?
Answer: -1.26 °C

Question: What does the source list for `CCCC(NC(=O)C(CC(C)C)NC(=O)OCc1ccccc1)C(=O)C(=O)NCc1ccccn1` (racemic)?
Answer: ΔTm [1]: 0.15 °C; ΔTm (Peregrin (Homo sapiens)): -1.7 °C

Question: Which ΔTm [1] does the source give for `Cc1cc(-n2cccc2)c(S(C)(=O)=O)cc1C(=O)N=C(N)N` here?
Answer: -0.71 °C

Question: What about the ΔTm (Peregrin (Homo sapiens)) of the same compound?
Answer: 2.16 °C

Question: With `CN(CCCCCCNc1ccnc2cc(Cl)ccc12)CCCCCCNc1ccnc2cc(Cl)ccc12` as the compound, how does the ΔTm [1] read?
Answer: 0.43 °C

Question: And the ΔTm (Peregrin (Homo sapiens))?
Answer: 0.99 °C

Question: What does the source list for `CN1CCN(c2cc(C(=O)Nc3ncc(SCc4cccc(C(F)(F)F)c4)s3)ccn2)CC1`?
Answer: ΔTm [1]: 0.89 °C; ΔTm (Peregrin (Homo sapiens)): -1.6 °C

Question: For `CN(CCCN1c2ccccc2CCc2ccccc21)CC(=O)c1ccc(Cl)cc1`, which ΔTm [1] is on record?
Answer: 0.53 °C

Question: And the ΔTm (Peregrin (Homo sapiens))?
Answer: -0.12 °C

Question: How did the ΔTm [1] turn out when `C#CCNC(=O)[C@H](CO)NC(=O)[C@H](CCCCN(CC)CC)NC(=O)[C@@H](NC(=O)[C@@H](NC(=O)[C@H](Cc1ccc(O)c(Cl)c1)NC(=O)c1cc(Cl)cc(Cl)c1)C1CCCC1)[C@@H](C)CC` ({Benzoyl(3,5-Cl2)}-[Tyr(3-Cl)][Gly(cPent)]I[Lys(Et2)]S-{NH(propargyl)}) was run?
Answer: -1.31 °C

Question: And the ΔTm (Peregrin (Homo sapiens))?
Answer: 1.15 °C

Question: For `CCCOc1ccc(NC(=O)CN2CCN(C)CC2)cc1-c1nc(CC)c(CC)c(=O)[nH]1`, which ΔTm [1] is on record?
Answer: -0.52 °C

Question: What about the ΔTm (Peregrin (Homo sapiens)) of the same compound?
Answer: 1.24 °C

Question: For `O=C(O)[C@@H]1CCCN(C(=O)n2cnc(-c3ccc(-c4cnc(N5CCOCC5)nc4)cc3)n2)[C@H]1c1ccccc1`, which ΔTm [1] is on record?
Answer: 0.15 °C

Question: What about the ΔTm (Peregrin (Homo sapiens)) of the same compound?
Answer: -0.92 °C

Question: Which results are given for `CCCCNc1cc(C(=O)O)cc(S(N)(=O)=O)c1Oc1ccccc1`?
Answer: ΔTm [1]: -0.15 °C; ΔTm (Peregrin (Homo sapiens)): 0.81 °C

Question: How did the ΔTm [1] turn out when `CC(C)(C)c1ccc(CN(C(=O)CN(Cc2c(F)c(F)c(F)c(F)c2F)S(=O)(=O)c2ccc(F)cc2)c2ccc(C(=O)NO)cc2)cc1` was run?
Answer: 1.58 °C

Question: What about the ΔTm (Peregrin (Homo sapiens)) of the same compound?
Answer: -3.76 °C

Question: How did the ΔTm [1] turn out when `C(=C\c1ccccc1)/CN1CCN(CCOC(c2ccccc2)c2ccccc2)CC1` was run?
Answer: -0.04 °C

Question: What about the ΔTm (Peregrin (Homo sapiens)) of the same compound?
Answer: 0.95 °C

Question: `C=CC(=O)Nc1cccc(-c2c[nH]cc2CN(C)CCN)c1` was tested. Which ΔTm [1] did it give?
Answer: 0.24 °C

Question: And the ΔTm (Peregrin (Homo sapiens))?
Answer: -1.04 °C

Question: Which results are given for `Cn1c(=O)cc(N2CCC[C@@H](N)C2)n(Cc2ccccc2C#N)c1=O`?
Answer: ΔTm [1]: 0.81 °C; ΔTm (Peregrin (Homo sapiens)): 2.35 °C

Question: What does the source list for `N#Cc1ccc(-c2c3n(c4cccnc24)CCN(C2CC2)C3=O)cc1F`?
Answer: ΔTm [1]: -0.59 °C; ΔTm (Peregrin (Homo sapiens)): -0.31 °C

Source: ChEMBL document CHEMBL5724796, “Tm Shift (DSF) assay results for EUbOPEN Chemogenomics Library” (2024)
